Laboratory results taken from patent publication US12077555B2, “STAT degraders and uses thereof” (Kymera Therapeutics, Inc., priority 2019, dated 2024).

Target: STAT3 (Homo sapiens, UniProt P40763)
Test: STAT3 HiBiT degradation assay in transfected A549 cells
Assay type: cell-based
Set-up: expressed in transfected cells; host or cells: A549
Conditions: A549, 24 h; read-out: STAT3 HiBiT A549 degradation 24 h: Average external-Abs DC50
Outline: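 Transfected A549 cells (~2000/well) plated 24 h, then treated 24 h at 37 °C, 5% CO2 with a 3-fold, 10-point compound dilution. HiBiT lytic luminescence read after 10 min at room temperature; remaining STAT3 normalized to negative and positive controls, four-parameter fit. DC50 binned A <0.01, B 0.01–0.1, C 0.1–1.0, D >1.0 µM.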

Chain of STAT3 (P40763 whole entry): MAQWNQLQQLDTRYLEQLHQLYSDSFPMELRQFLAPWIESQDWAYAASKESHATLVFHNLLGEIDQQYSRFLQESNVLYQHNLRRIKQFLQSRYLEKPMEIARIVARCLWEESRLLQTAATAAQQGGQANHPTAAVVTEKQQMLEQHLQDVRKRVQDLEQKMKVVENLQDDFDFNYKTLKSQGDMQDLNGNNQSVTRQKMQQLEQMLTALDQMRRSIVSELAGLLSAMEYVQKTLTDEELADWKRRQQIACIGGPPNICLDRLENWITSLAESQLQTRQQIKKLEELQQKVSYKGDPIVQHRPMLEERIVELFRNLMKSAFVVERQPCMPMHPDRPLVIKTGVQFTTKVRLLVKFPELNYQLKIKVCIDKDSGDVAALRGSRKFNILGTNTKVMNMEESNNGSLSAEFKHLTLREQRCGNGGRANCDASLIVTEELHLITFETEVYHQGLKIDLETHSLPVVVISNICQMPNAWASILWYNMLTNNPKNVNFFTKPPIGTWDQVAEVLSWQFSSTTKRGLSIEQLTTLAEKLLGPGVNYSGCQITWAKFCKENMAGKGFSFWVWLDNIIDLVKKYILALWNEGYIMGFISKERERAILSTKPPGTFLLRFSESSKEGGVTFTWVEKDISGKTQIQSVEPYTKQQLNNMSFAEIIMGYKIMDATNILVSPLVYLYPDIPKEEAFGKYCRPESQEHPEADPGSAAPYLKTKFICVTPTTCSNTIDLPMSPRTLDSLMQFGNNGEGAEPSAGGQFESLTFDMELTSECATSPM

Structure (SMILES) | DC50 [nM]
Cc1cc(CCCC(=O)N[C@H](C(=O)N2C[C@H](O)C[C@H]2C(=O)N[C@@H](C)c2ccc(-c3scnc3C)cc2)C(C)(C)C)c(F)c(OC[C@H](CCC(N)=O)NC(=O)[C@@H]2Cc3cccc4c3N2C(=O)[C@@H](NC(=O)c2cc3cc(C(=O)P(=O)(O)O)ccc3[nH]2)CC4)c1 [Compound I-235, diammonium 2-[[(2S,11S)-2-[[(2S)-4-carbamoyl-1-[2-fluoro-3-(3-[[(2S)-1-[(2S,4R)-4-hydroxy-2-[[(1S)-1-[4-(4-methyl-1,3-thiazol-5-yl)phenyl]ethyl]carbamoyl]pyrrolidin-1-yl]-3,3-dimethyl-1-oxobutan-2-yl]carbamoyl]propyl)-5-methyl-phenoxy]butan-2-yl]carbamoyl]-12-oxo-1-azatricyclo[6.4.1.0^[4,13]]trideca-4(13),5,7-trien-11-yl]carbamoyl]-1H-indole-5-carbonylphosphonate] | > 1000
Cc1ncsc1-c1ccc([C@H](C)NC(=O)[C@@H]2C[C@@H](O)CN2C(=O)[C@@H](NC(=O)CCCCc2ccc(CCC[C@H](CCC(N)=O)NC(=O)[C@@H]3Cc4cccc5c4N3C(=O)[C@@H](NC(=O)c3cc4cc(C(=O)P(=O)(O)O)ccc4[nH]3)CC5)cc2)C(C)(C)C)cc1 [Compound I-237, diammonium 2-[[(2S,11S)-2-[[(3R)-1-carbamoyl-6-[4-(4-[[(2S)-1-[(2S,4R)-4-hydroxy-2-[[(1S)-1-[4-(4-methyl-1,3-thiazol-5-yl)phenyl]ethyl]carbamoyl]pyrrolidin-1-yl]-3,3-dimethyl-1-oxobutan-2-yl]carbamoyl]butyl)phenyl]hexan-3-yl]carbamoyl]-12-oxo-1-azatricyclo[6.4.1.0^[4,13]]trideca-4(13),5,7-trien-11-yl]carbamoyl]-1H-indole-5-carbonylphosphonate] | 10 to 100
Cc1ncsc1-c1ccc([C@H](C)NC(=O)[C@@H]2C[C@@H](O)CN2C(=O)[C@@H](NC(=O)CCCCCc2ccc([C@H](CCC(N)=O)NC(=O)[C@@H]3Cc4cccc5c4N3C(=O)[C@@H](NC(=O)c3cc4cc(C(=O)P(=O)(O)O)ccc4[nH]3)CC5)nc2)C(C)(C)C)cc1 [Compound I-238] | 100 to 1000
Cc1ncsc1-c1ccc([C@H](C)NC(=O)[C@@H]2C[C@@H](O)CN2C(=O)[C@@H](NC(=O)CCCCc2cccc(OC[C@H](CCC(N)=O)NC(=O)[C@@H]3CCCN3C(=O)[C@H](CC(C)C)NC(=O)c3cc4cc(C(=O)P(=O)(O)O)ccc4[nH]3)c2Cl)C(C)(C)C)cc1 [Compound I-239, diammonium 2-[[(2S)-1-[(2S)-2-[[(2S)-4-carbamoyl-1-[2-chloro-3-(4-[[(2S)-1-[(2S,4R)-4-hydroxy-2-[[(1S)-1-[4-(4-methyl-1,3-thiazol-5-yl)phenyl]ethyl]carbamoyl]pyrrolidin-1-yl]-3,3-dimethyl-1-oxobutan-2-yl]carbamoyl]butyl)phenoxy]butan-2-yl]carbamoyl]pyrrolidin-1-yl]-4-methyl-1-oxopentan-2-yl]carbamoyl]-1H-] | < 10
Cc1ncsc1-c1ccc([C@H](C)NC(=O)[C@@H]2C[C@@H](O)CN2C(=O)[C@@H](NC(=O)CCCc2cccc(OC[C@H](CCC(N)=O)NC(=O)[C@@H]3CCCN3C(=O)[C@H](CC(C)C)NC(=O)c3cc4cc(C(=O)P(=O)(O)O)ccc4[nH]3)c2Cl)C(C)(C)C)cc1 [Compound I-240] | 10 to 100
Cc1ncsc1-c1ccc([C@H](C)NC(=O)[C@@H]2C[C@@H](O)CN2C(=O)[C@@H](NC(=O)CCCCc2cccc(OC[C@H](CCC(N)=O)NC(=O)[C@@H]3Cc4cccc5c4N3C(=O)[C@@H](NC(=O)c3cc4cc(C(=O)P(=O)(O)O)ccc4[nH]3)CC5)c2Cl)C(C)(C)C)cc1 [Compound I-243] | < 10
Cc1ncsc1-c1ccc([C@H](C)NC(=O)[C@@H]2C[C@@H](O)CN2C(=O)[C@@H](NC(=O)CCCCCc2cc(Cl)cc(OC[C@H](CCC(N)=O)NC(=O)[C@@H]3Cc4cccc5c4N3C(=O)[C@@H](NC(=O)c3cc4cc(C(=O)P(=O)(O)O)ccc4[nH]3)CC5)c2F)C(C)(C)C)cc1 [Compound I-244, 2-[[(2S,11S)-2-[[(2S)-4-carbamoyl-1-[5-chloro-2-fluoro-3-(5-[[(2S)-1-[(2S,4R)-4-hydroxy-2-[[(1S)-1-[4-(4-methyl-1,3-thiazol-5-yl)phenyl]ethyl]carbamoyl]pyrrolidin-1-yl]-3,3-dimethyl-1-oxobutan-2-yl]carbamoyl]pentyl)phenoxy]butan-2-yl]carbamoyl]-12-oxo-1-azatricyclo[6.4.1.0^[4,13]]trideca-4(13),5,7-trien-11-yl]carbamoyl]-1H-indole-5-carbonylphosphonic acid] | < 10
Cn1c(=O)n(C2CCC(=O)NC2=O)c2ccc(CC3CCC(Cc4cc5c6c(c4)C[C@@H](C(=O)N[C@@H](CCC(N)=O)C(=O)NC(c4ccccc4)c4ccccc4)N6C(=O)[C@@H](NC(=O)c4cc6cc(C(=O)P(=O)(O)O)ccc6[nH]4)CC5)CC3)cc21 (stereo partly drawn) [Compound I-245, 2-[[(2S,11S)-2-[[(1S)-3-carbamoyl-1-(diphenylmethylcarbamoyl)propyl]carbamoyl]-6-[(4-[[1-(2,6-dioxopiperidin-3-yl)-3-methyl-2-oxo-1,3-benzodiazol-5-yl]methyl]cyclohexyl)methyl]-12-oxo-1-azatricyclo[6.4.1.0^[4,13]]trideca-4(13),5,7-trien-11-yl]carbamoyl]-1H-indole-5-carbonylphosphonic acid] | 100 to 1000
Cc1ncsc1-c1ccc([C@H](C)NC(=O)[C@@H]2C[C@@H](O)CN2C(=O)[C@@H](NC(=O)CCCCc2cccc(NC(=O)C(CCC(N)=O)NC(=O)[C@@H]3Cc4cccc5c4N3C(=O)[C@@H](NC(=O)c3cc4cc(C(=O)P(=O)(O)O)ccc4[nH]3)CC5)c2Cl)C(C)(C)C)cc1 (stereo partly drawn) [Compound I-246, diammonium 2-[[(2S,11S)-2-[(3-carbamoyl-1-[[2-chloro-3-(4-[[(2S)-1-[(2S,4R)-4-hydroxy-2-[[(1S)-1-[4-(4-methyl-1,3-thiazol-5-yl)phenyl]ethyl]carbamoyl]pyrrolidin-1-yl]-3,3-dimethyl-1-oxobutan-2-yl]carbamoyl]butyl)phenyl]carbamoyl]propyl)carbamoyl]-12-oxo-1-azatricyclo[6.4.1.0^[4,13]]trideca-4(13),5,7-trien-11-yl]carbamoyl]-1H-indole-5-carbonylphosphonate] | 10 to 100
Cc1ncsc1-c1ccc([C@H](C)NC(=O)[C@@H]2C[C@@H](O)CN2C(=O)[C@@H](NC(=O)CCCc2cccc(NC(=O)[C@H](CCC(N)=O)NC(=O)[C@@H]3Cc4cccc5c4N3C(=O)[C@@H](NC(=O)c3cc4cc(C(=O)P(=O)(O)O)ccc4[nH]3)CC5)c2Cl)C(C)(C)C)cc1 [Compound I-247, diammonium 2-[[(2S,11S)-2-[[(1S)-3-carbamoyl-1-[[2-chloro-3-(3-[[(2S)-1-[(2S,4R)-4-hydroxy-2-[[(1S)-1-[4-(4-methyl-1,3-thiazol-5-yl)phenyl]ethyl]carbamoyl]pyrrolidin-1-yl]-3,3-dimethyl-1-oxobutan-2-yl]carbamoyl]propyl)phenyl]carbamoyl]propyl]carbamoyl]-12-oxo-1-azatricyclo[6.4.1.0^[4,13]]trideca-4(13),5,7-trien-11-yl]carbamoyl]-1H-indole-5-carbonylphosphonate] | 10 to 100
Cc1ncsc1-c1ccc([C@H](C)NC(=O)[C@@H]2C[C@@H](O)CN2C(=O)[C@@H](NC(=O)CCCc2cccc(NC(=O)[C@H](CCC(N)=O)NC(=O)[C@@H]3Cc4cccc5c4N3C(=O)[C@@H](NC(=O)c3cc4cc(C(=O)P(=O)(O)O)ccc4[nH]3)CC5)c2)C(C)(C)C)cc1 [Compound I-248] | 10 to 100
Cc1ncsc1-c1ccc([C@H](C)NC(=O)[C@@H]2C[C@@H](O)CN2C(=O)[C@@H](NC(=O)CCCCCc2cccc(NC(=O)[C@H](CCC(N)=O)NC(=O)[C@@H]3Cc4cccc5c4N3C(=O)[C@@H](NC(=O)c3cc4cc(C(=O)P(=O)(O)O)ccc4[nH]3)CC5)c2Cl)C(C)(C)C)cc1 [Compound I-249, 2-[[(2S,11S)-2-[[(1S)-3-carbamoyl-1-[[2-chloro-3-(5-[[(2S)-1-[(2S,4R)-4-hydroxy-2-[[(1S)-1-[4-(4-methyl-1,3-thiazol-5-yl)phenyl]ethyl]carbamoyl]pyrrolidin-1-yl]-3,3-dimethyl-1-oxobutan-2-yl]carbamoyl]pentyl)phenyl]carbamoyl]propyl]carbamoyl]-12-oxo-1-azatricyclo[6.4.1.0^[4,13]]trideca-4(13),5,7-trien-11-yl]carbamoyl]-1H-indole-5-carbonylphosphonic acid] | 10 to 100

Same assay, conditions: read-out: STAT3 HiBiT A549 degradation 24 h: Average external-Abs DC50; A549, 24 h

Structure (SMILES) | DC50 [nM]
CC(=O)N1CC[C@H]2CC[C@@H](C(=O)N[C@@H](CCC(N)=O)COc3cc(C)cc(CCCCC(=O)N[C@H](C(=O)N4C[C@H](O)C[C@H]4C(=O)N[C@@H](C)c4ccc(-c5scnc5C)cc4)C(C)(C)C)c3F)N2C(=O)[C@@H](NC(=O)c2cc3cc(C(=O)P(=O)(O)O)ccc3[nH]2)C1 [Compound I-236, diammonium 2-[[(5S,8S,10aR)-3-acetyl-8-[[(2S)-4-carbamoyl-1-[2-fluoro-3-(4-[[(2S)-1-[(2S,4R)-4-hydroxy-2-[[(1S)-1-[4-(4-methyl-1,3-thiazol-5-yl)phenyl]ethyl]carbamoyl]pyrrolidin-1-yl]-3,3-dimethyl-1-oxobutan-2-yl]carbamoyl]butyl)-5-methylphenoxy]butan-2-yl]carbamoyl]-6-oxo-octahydropyrrolo[1,2-a][1,5]diazocin-5-yl]carbamoyl]-1H-indole-5-carbonylphosphonate] | 100 to 1000
